How the values were obtained:
[1] = test system: neuroendocrine tumor (NET); assay: Progression-free survival of PPQ-negative subjects after PRRT or PRRT plus chemotherapy; format: in vivo, human; conditions: PPQ predicted non responders; standard 4 cycle PRRT
Excerpt: Clinical outcomes of patients that were identified by the PPQ to be a predicted non-responder to PRRT therapy were further analyzed. […] Thus, the PPQ can be used to identify patients that require additional agents (e.g. immune-related treatments or chemotherapy) to be used with PRRT and thereby optimize outcomes.

midgut NETs = midgut NETs progressive on standard octreotide LAR treatment; cited from earlier work

C[C@@H](O)[C@H](NC(=O)[C@@H]1CSSC[C@H](NC(=O)[C@@H](Cc2ccccc2)NC(=O)CN2CCN(CC(=O)[O-])CCN(CC(=O)[O-])CCN(CC(=O)[O-])CC2)C(=O)N[C@@H](Cc2ccc(O)cc2)C(=O)N[C@H](Cc2c[nH]c3ccccc23)C(=O)N[C@@H](CCCCN)C(=O)N[C@@H]([C@@H](C)O)C(=O)N1)C(=O)O.[177Lu+3] [Lutathera, ^177Lu-DOTA-Tyr^3-Thr^8-octreotide]
median PFS [1]: 9 months | efficacy versus high-dose octreotide (midgut NETs): more effective than high-dose octreotide somatostatin analogs
